# Experimental data as given in ChEMBL document CHEMBL3792284, “Synthesis of triazoloquinazolinone based compounds as tubulin polymerization inhibitors and vascular disrupting agents” (Eur J Med Chem, 2016).
# Assays:
# Tubulin = Tubulin (Bos taurus, UniProt Q6B856+Q862L2+Q862F3); assay: Inhibition of bovine tubulin polymerization after 1 hr by fluorescence spectrometry; assay type: protein assay
# HT-29 [1] = assay: Antiproliferative activity against human HT-29 cells at 10 uM after 72 hrs by MTS assay; assay type: functional; settings: HT-29, 72 h
# HUVEC = assay: Inhibition of cell invasion of HUVEC at 1 uM after 24 hrs by crystal violet staining based Boyden chamber assay; assay type: functional; settings: Homo sapiens
# [2] = Growth inhibition of human HL-60(TB) cells after 48 hrs by sulforhodamine B assay; assay type: functional; settings: HL-60, 48 h
# K562 [3] = assay: Growth inhibition of human K562 cells after 48 hrs by sulforhodamine B assay; assay type: functional; settings: K562, 48 h
# SR [4] = assay: Growth inhibition of human SR cells after 48 hrs by sulforhodamine B assay; assay type: functional
# A549 [5] = assay: Growth inhibition of human A549/ATCC cells after 48 hrs by sulforhodamine B assay; assay type: functional; settings: A549, 48 h
# [6] = Growth inhibition of human HOP62 cells after 48 hrs by sulforhodamine B assay; assay type: functional; settings: HOP-62, 48 h
# NCI-H522 [7] = assay: Growth inhibition of human NCI-H522 cells after 48 hrs by sulforhodamine B assay; assay type: functional; settings: NCI-H522, 48 h
# [8] = Growth inhibition of human COLO205 cells after 48 hrs by sulforhodamine B assay; assay type: functional; settings: COLO 205, 48 h
# [9] = Growth inhibition of human HCT116 cells after 48 hrs by sulforhodamine B assay; assay type: functional; settings: HCT-116, 48 h
# [10] = Growth inhibition of human HCT15 cells after 48 hrs by sulforhodamine B assay; assay type: functional; settings: HCT-15, 48 h
# HT-29 [11] = assay: Growth inhibition of human HT-29 cells after 48 hrs by sulforhodamine B assay; assay type: functional; settings: HT-29, 48 h
# [12] = Growth inhibition of human SF295 cells after 48 hrs by sulforhodamine B assay; assay type: functional; settings: SF-295, 48 h
# [13] = Growth inhibition of human SNB75 cells after 48 hrs by sulforhodamine B assay; assay type: functional; settings: SNB-75, 48 h
# U-251 [14] = assay: Growth inhibition of human U251 cells after 48 hrs by sulforhodamine B assay; assay type: functional; settings: U-251, 48 h
# SK-MEL-5 [15] = assay: Growth inhibition of human SK-MEL-5 cells after 48 hrs by sulforhodamine B assay; assay type: functional; settings: SK-MEL-5, 48 h
# [16] = Growth inhibition of human OVCAR3 cells after 48 hrs by sulforhodamine B assay; assay type: functional; settings: OVCAR-3, 48 h
# A498 [17] = assay: Growth inhibition of human A498 cells after 48 hrs by sulforhodamine B assay; assay type: functional; settings: A498, 48 h
# [18] = Growth inhibition of human Caki1 cells after 48 hrs by sulforhodamine B assay; assay type: functional; settings: CAKI-1, 48 h
# [19] = Growth inhibition of human PC3 cells after 48 hrs by sulforhodamine B assay; assay type: functional; settings: PC-3, 48 h
# MDA-MB-435 [20] = assay: Growth inhibition of human MDA-MB-435 cells after 72 hrs by MTT assay; assay type: functional; settings: MDA-MB-435, 72 h
# MCF7 [21] = assay: Growth inhibition of human MCF7 cells after 3 days by MTT assay; assay type: functional; settings: MCF7, 72 h
# [22] = Growth inhibition of human HL-60(TB) cells at 10 uM after 48 hrs by sulforhodamine B assay; assay type: functional; settings: HL-60, 48 h, read-out: GI
# K562 [23] = assay: Growth inhibition of human K562 cells at 10 uM after 48 hrs by sulforhodamine B assay; assay type: functional; settings: K562, 48 h, read-out: GI
# SR [24] = assay: Growth inhibition of human SR cells at 10 uM after 48 hrs by sulforhodamine B assay; assay type: functional; settings: read-out: GI
# A549 [25] = assay: Growth inhibition of human A549/ATCC cells at 10 uM after 48 hrs by sulforhodamine B assay; assay type: functional; settings: A549, 48 h, read-out: GI
# [26] = Growth inhibition of human HOP62 cells at 10 uM after 48 hrs by sulforhodamine B assay; assay type: functional; settings: HOP-62, 48 h, read-out: GI
# NCI-H522 [27] = assay: Growth inhibition of human NCI-H522 cells at 10 uM after 48 hrs by sulforhodamine B assay; assay type: functional; settings: NCI-H522, 48 h, read-out: GI
# [28] = Growth inhibition of human COLO205 cells at 10 uM after 48 hrs by sulforhodamine B assay; assay type: functional; settings: COLO 205, 48 h, read-out: GI
# [29] = Growth inhibition of human HCT116 cells at 10 uM after 48 hrs by sulforhodamine B assay; assay type: functional; settings: HCT-116, 48 h, read-out: GI
# [30] = Growth inhibition of human HCT15 cells at 10 uM after 48 hrs by sulforhodamine B assay; assay type: functional; settings: HCT-15, 48 h, read-out: GI
# HT-29 [31] = assay: Growth inhibition of human HT-29 cells at 10 uM after 48 hrs by sulforhodamine B assay; assay type: functional; settings: HT-29, 48 h, read-out: GI
# [32] = Growth inhibition of human SF295 cells at 10 uM after 48 hrs by sulforhodamine B assay; assay type: functional; settings: SF-295, 48 h, read-out: GI
# [33] = Growth inhibition of human SNB75 cells at 10 uM after 48 hrs by sulforhodamine B assay; assay type: functional; settings: SNB-75, 48 h, read-out: GI
# U-251 [34] = assay: Growth inhibition of human U251 cells at 10 uM after 48 hrs by sulforhodamine B assay; assay type: functional; settings: U-251, 48 h, read-out: GI
# MDA-MB-435 [35] = assay: Growth inhibition of human MDA-MB-435 cells at 10 uM after 48 hrs by sulforhodamine B assay; assay type: functional; settings: MDA-MB-435, 48 h, read-out: GI
# SK-MEL-5 [36] = assay: Growth inhibition of human SK-MEL-5 cells at 10 uM after 48 hrs by sulforhodamine B assay; assay type: functional; settings: SK-MEL-5, 48 h, read-out: GI
# [37] = Growth inhibition of human OVCAR3 cells at 10 uM after 48 hrs by sulforhodamine B assay; assay type: functional; settings: OVCAR-3, 48 h, read-out: GI
# [38] = Growth inhibition of human NCI-ADR-RES cells at 10 uM after 48 hrs by sulforhodamine B assay; assay type: functional; settings: read-out: GI
# A498 [39] = assay: Growth inhibition of human A498 cells at 10 uM after 48 hrs by sulforhodamine B assay; assay type: functional; settings: A498, 48 h, read-out: GI
# [40] = Growth inhibition of human Caki1 cells at 10 uM after 48 hrs by sulforhodamine B assay; assay type: functional; settings: CAKI-1, 48 h, read-out: GI
# [41] = Growth inhibition of human PC3 cells at 10 uM after 48 hrs by sulforhodamine B assay; assay type: functional; settings: PC-3, 48 h, read-out: GI
# [42] = Growth inhibition of human DU145 cells at 10 uM after 48 hrs by sulforhodamine B assay; assay type: functional; settings: DU-145, 48 h, read-out: GI
# MCF7 [43] = assay: Growth inhibition of human MCF7 cells at 10 uM after 48 hrs by sulforhodamine B assay; assay type: functional; settings: MCF7, 48 h, read-out: GI
# MDA-MB-468 [44] = assay: Growth inhibition of human MDA-MB-468 cells at 10 uM after 48 hrs by sulforhodamine B assay; assay type: functional; settings: MDA-MB-468, 48 h, read-out: GI
# MDA-MB-435 [45] = assay: Growth inhibition of human MDA-MB-435 cells after 48 hrs by sulforhodamine B assay; assay type: functional; settings: MDA-MB-435, 48 h
# [46] = Growth inhibition of human NCI-ADR-RES cells after 48 hrs by sulforhodamine B assay; assay type: functional
# [47] = Growth inhibition of human DU145 cells after 48 hrs by sulforhodamine B assay; assay type: functional; settings: DU-145, 48 h
# MCF7 [48] = assay: Growth inhibition of human MCF7 cells after 48 hrs by sulforhodamine B assay; assay type: functional; settings: MCF7, 48 h
# MDA-MB-468 [49] = assay: Growth inhibition of human MDA-MB-468 cells after 48 hrs by sulforhodamine B assay; assay type: functional; settings: MDA-MB-468, 48 h
# [50] = Cytotoxicity against human HL-60(TB) cells assessed as cell growth at 10 uM after 48 hrs by sulforhodamine B assay; assay type: functional; settings: HL-60, 48 h, read-out: Activity
# MDA-MB-435 [51] = assay: Cytotoxicity against human MDA-MB-435 cells assessed as cell growth at 10 uM after 48 hrs by sulforhodamine B assay; assay type: functional; settings: MDA-MB-435, 48 h, read-out: Activity
# [52] = Cytotoxicity against human COLO205 cells assessed as cell growth at 10 uM after 48 hrs by sulforhodamine B assay; assay type: functional; settings: COLO 205, 48 h, read-out: Activity
smiles,measurement,setting,value
COc1ccc(-c2nnc3[nH]c(=O)c4ccccc4n23)cc1OC,IC50,Tubulin,> 10 µM
same,inhibition at 10 µM,HT-29 [1],0%
COc1ccc(-c2nnc3[nH]c(=O)c4ccccc4n23)cc1O,IC50,Tubulin,4.26 µM
same,inhibition at 10 µM,HT-29 [1],10%
COc1ccc(-c2nnc3n(C)c(=O)c4ccccc4n23)cc1,IC50,Tubulin,> 10 µM
same,inhibition at 10 µM,HT-29 [1],2%
COc1cc(-c2nnc3n(C)c(=O)c4ccccc4n23)cc(OC)c1OC,IC50,Tubulin,> 10 µM
same,inhibition at 10 µM,HT-29 [1],0%
COc1cc(-c2nnc3n(C)c(=O)c4ccccc4n23)ccc1O,IC50,Tubulin,> 10 µM
same,inhibition at 10 µM,HT-29 [1],0%
Cn1c(=O)c2ccccc2n2c(-c3ccc(O)c(O)c3)nnc12,IC50,Tubulin,> 10 µM
same,inhibition at 10 µM,HT-29 [1],0%
COc1ccc(-c2nnc3[nH]c(=O)c4ccccc4n23)cc1,IC50,Tubulin,> 10 µM
same,inhibition at 10 µM,HT-29 [1],0%
COc1cc(-c2nnc3[nH]c(=O)c4ccccc4n23)ccc1O,IC50,Tubulin,> 10 µM
same,inhibition at 10 µM,HT-29 [1],0%
COc1cc(-c2nnc3[nH]c(=O)c4ccccc4n23)cc(OC)c1OC,IC50,Tubulin,> 10 µM
same,inhibition at 10 µM,HT-29 [1],2%
COc1cc2c(Oc3ccc4[nH]c(C)cc4c3F)ncnc2cc1OCCCN1CCCC1 [CEDIRANIB],inhibition at 1 µM,HUVEC,74%
COc1ccc(-c2nnc3n(C)c(=O)c4ccccc4n23)cc1OC,IC50,Tubulin,> 10 µM
same,inhibition at 10 µM,HT-29 [1],1%
COc1ccc(/C=C\c2cc(OC)c(OC)c(OC)c2)cc1O [COMBRETASTATIN A4],GI50,[2],2 nM
same,GI50,K562 [3],2 nM
same,GI50,SR [4],3 nM
same,GI50,A549 [5],16 nM
same,GI50,[6],2 nM
same,GI50,NCI-H522 [7],2 nM
same,GI50,[8],221 nM
same,GI50,[9],3 nM
same,GI50,[10],4 nM
same,GI50,HT-29 [11],118 nM
same,GI50,[12],4 nM
same,GI50,[13],8 nM
same,GI50,U-251 [14],4 nM
same,GI50,SK-MEL-5 [15],3 nM
same,GI50,[16],2 nM
same,GI50,A498 [17],6 nM
same,GI50,[18],25 nM
same,GI50,[19],1 nM
same,GI50,MDA-MB-435 [20],3 nM
same,GI50,MCF7 [21],18 nM
COc1ccc(-c2nnc3n(C)c(=O)c4ccccc4n23)cc1N,IC50,Tubulin,> 10 µM
same,inhibition at 10 µM,HT-29 [1],95%
same,inhibition of growth at 10 µM,[22],100%
same,inhibition of growth at 10 µM,K562 [23],92%
same,inhibition of growth at 10 µM,SR [24],89%
same,inhibition of growth at 10 µM,A549 [25],72%
same,inhibition of growth at 10 µM,[26],83%
same,inhibition of growth at 10 µM,NCI-H522 [27],91%
same,inhibition of growth at 10 µM,[28],100%
same,inhibition of growth at 10 µM,[29],76%
same,inhibition of growth at 10 µM,[30],78%
same,inhibition of growth at 10 µM,HT-29 [31],95%
same,inhibition of growth at 10 µM,[32],98%
same,inhibition of growth at 10 µM,[33],81%
same,inhibition of growth at 10 µM,U-251 [34],81%
same,inhibition of growth at 10 µM,MDA-MB-435 [35],100%
same,inhibition of growth at 10 µM,SK-MEL-5 [36],86%
same,inhibition of growth at 10 µM,[37],92%
same,inhibition of growth at 10 µM,[38],83%
same,inhibition of growth at 10 µM,A498 [39],80%
same,inhibition of growth at 10 µM,[40],65%
same,inhibition of growth at 10 µM,[41],67%
same,inhibition of growth at 10 µM,[42],79%
same,inhibition of growth at 10 µM,MCF7 [43],85%
same,inhibition of growth at 10 µM,MDA-MB-468 [44],89%
same,GI50,K562 [3],39 nM
same,GI50,SR [4],34 nM
same,GI50,A549 [5],1470 nM
same,GI50,[6],48 nM
same,GI50,NCI-H522 [7],31 nM
same,GI50,[8],47 nM
same,GI50,[9],57 nM
same,GI50,[10],50 nM
same,GI50,HT-29 [11],43 nM
same,GI50,[12],50 nM
same,GI50,U-251 [14],1630 nM
same,GI50,MDA-MB-435 [45],23 nM
same,GI50,SK-MEL-5 [15],60 nM
same,GI50,[16],47 nM
same,GI50,[46],65 nM
same,GI50,A498 [17],2840 nM
same,GI50,[18],1950 nM
same,GI50,[19],2650 nM
same,GI50,[47],3.09 µM
same,GI50,MCF7 [48],43 nM
same,GI50,MDA-MB-468 [49],2330 nM
same,growth at 10 µM,[50],11%
same,growth at 10 µM,MDA-MB-435 [51],44%
same,growth at 10 µM,[52],18%
